# Measurements published in US8030354B2, “Substituted biphenyl GPR40 modulators” (Amgen Inc., priority 2007, dated 2011).
# Target: GPR40 (Homo sapiens, UniProt O14842)
# Test: Cell-based aequorin assay (CHO cells stably expressing GPR40 and aequorin)
# Design: expressed in transfected cells; host or cells: CHO cells stably transfected with GPR40 and aequorin
# Conditions: activation of human GPR40, CHO cells, 0.01% HSA
# In short: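 CHO cells stably co-expressing GPR40 and aequorin, loaded with coelenterazine (1 ug/mL, 2 h, room temperature) in H/HBSS with 20 mM Hepes and 0.01% fatty acid-free HSA. Serially diluted compounds added; luminescence recorded over 20 s. EC50 from dose-response of maximum relative light units.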
# GPR40, sequence (O14842 whole entry): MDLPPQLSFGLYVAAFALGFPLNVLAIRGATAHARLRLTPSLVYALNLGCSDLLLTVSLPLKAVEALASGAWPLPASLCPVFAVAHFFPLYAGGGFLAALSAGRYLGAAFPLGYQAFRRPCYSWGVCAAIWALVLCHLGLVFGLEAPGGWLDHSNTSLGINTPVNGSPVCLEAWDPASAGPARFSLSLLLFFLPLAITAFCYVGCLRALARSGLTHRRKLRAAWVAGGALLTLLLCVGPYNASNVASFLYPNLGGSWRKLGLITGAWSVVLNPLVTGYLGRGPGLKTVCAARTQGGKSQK
row,Structure (SMILES),EC50
1,"COc1ccc(F)c(-c2ccc(COc3cccc([C@@H](CC(=O)O)CC4CC4)c3)cc2S(=O)(=O)C(C)C)c1 (single isomer, unassigned) [Example 69.25, (R)-4-Cyclopropyl-3-{3-[2′-fluoro-5′-methoxy-2-(propane-2-sulfonyl)-biphenyl-4-ylmethoxy]-phenyl}-butyric acid or (S)-4-cyclopropyl-3-{3-[2′-fluoro-5′-methoxy-2-(propane-2-sulfonyl)-biphenyl-4-ylmethoxy]-phenyl}-butyric acid]",1 to 10 µM
2,"COc1ccc(F)c(-c2ccc(COc3cccc([C@@H](CC(=O)O)CC4CC4)c3)cc2[S+]([O-])C(C)C)c1 (single isomer, unassigned) [Example 69.26, (R)-4-Cyclopropyl-3-{3-[2′-fluoro-5′-methoxy-2-(propane-2-sulfinyl)-biphenyl-4-ylmethoxy]-phenyl}-butyric acid or (S)-4-cyclopropyl-3-{3-[2′-fluoro-5′-methoxy-2-(propane-2-sulfinyl)-biphenyl-4-ylmethoxy]-phenyl}-butyric acid]",1 to 10 µM
3,"COc1ccc(F)c(-c2ccc(COc3cccc(C(CC(=O)O)CC4CC4)c3)cc2C2OCCCC2(C)C)c1 (single isomer, unassigned) [Example 69.27, (R)-4-Cyclopropyl-3-{3-[2-(3,3-dimethyl-tetrahydro-pyran-2-yl)-2′-fluoro-5′-methoxy-biphenyl-4-ylmethoxy]-phenyl}-butyric acid or (S)-4-cyclopropyl-3-{3-[2-(3,3-dimethyl-tetrahydro-pyran-2-yl)-2′-fluoro-5′-methoxy-biphenyl-4-ylmethoxy]-phenyl}-butyric acid]",0.1 to 1 µM
4,"CCOCc1cc(COc2cccc(C(CC(=O)O)CC3CC3)c2)ccc1-c1cc(OC)ccc1F (single isomer, unassigned) [Example 69.37, (3R)-4-Cyclopropyl-3-(3-(((2-((ethyloxy)methyl)-2′-fluoro-5′-(methyloxy)-1,1′-biphenyl-4-yl)methyl)oxy)phenyl)butanoic acid or (3S)-4-cyclopropyl-3-(3-(((2-((ethyloxy)methyl)-2′-fluoro-5′-(methyloxy)-1,1′-biphenyl-4-yl)methyl)oxy)phenyl)butanoic acid]",1 to 10 µM
5,"C=CC(C)(C)[C@H](OC)c1cc(COc2cccc([C@@H](CC(=O)O)CC3CC3)c2)ccc1-c1cc(OC)ccc1F (single isomer, unassigned) [Example 69.39]",1 to 10 µM
6,"C=CC(C)(C)C(O)c1cc(COc2cccc(C(CC(=O)O)CC3CC3)c2)ccc1-c1cc(OC)ccc1F (single isomer, unassigned) [Example 69.40]",1 to 10 µM
7,"CCC(C)(C)C(OC)c1cc(COc2cccc(C(CC(=O)O)CC3CC3)c2)ccc1-c1cc(OC)ccc1F (single isomer, unassigned) [Example 69.41, (3R)-4-Cyclopropyl-3-(3-(((2-((1S)-2,2-dimethyl-1-(methyloxy)butyl)-2′-fluoro-5′-(methyloxy)-1,1′-biphenyl-4-yl)methyl)oxy)phenyl)butanoic acid or (3R)-4-cyclopropyl-3-(3-(((2-((1S)-2,2-dimethyl-1-(methyloxy)butyl)-2′-fluoro-5′-(methyloxy)-1,1′-biphenyl-4-yl)methyl)oxy)phenyl)butanoic acid]",0.1 to 1 µM
8,"COc1ccc(F)c(-c2ccc(COc3cccc([C@@H](CC(=O)O)CC4CC4)c3)cc2[C@@H]2OCCC2(C)C)c1 (single isomer, unassigned) [Example 69.43]",1 to 10 µM
9,"COc1ccc(F)c(-c2ccc(COc3cccc(C(CC(=O)O)CC4CC4)c3)cc2COCC=C(C)C)c1 (single isomer, unassigned) [Example 69.45, (3R)-4-Cyclopropyl-3-(3-(((2′-fluoro-2-(((3-methyl-2-butenyl)oxy)methyl)-5′-(methyloxy)-1,1′-biphenyl-4-yl)methyl)oxy)phenyl)butanoic acid or (3S)-4-cyclopropyl-3-(3-(((2′-fluoro-2-(((3-methyl-2-butenyl)oxy)methyl)-5′-(methyloxy)-1,1′-biphenyl-4-yl)methyl)oxy)phenyl)butanoic acid]",1 to 10 µM
10,"COc1ccc(F)c(-c2ccc(COc3cccc(C(CC(=O)O)CC4CC4)c3)cc2CN2CCCC2)c1 (single isomer, unassigned) [Example 69.46, (3R)-4-Cyclopropyl-3-(3-(((2′-fluoro-5′-(methyloxy)-2-(1-pyrrolidinylmethyl)-1,1′-biphenyl-4-yl)methyl)oxy)phenyl)butanoic acid or (3S)-4-cyclopropyl-3-(3-(((2′-fluoro-5′-(methyloxy)-2-(1-pyrrolidinylmethyl)-1,1′-biphenyl-4-yl)methyl)oxy)phenyl)butanoic acid]",1 to 10 µM
11,"COc1ccc(F)c(-c2ccc(COc3cccc(C(CC(=O)O)CC4CC4)c3)cc2CN2[C@H](C)CC[C@H]2C)c1 (single isomer, unassigned) [Example 69.47, (3R)-4-Cyclopropyl-3-(3-(((2-(((2R,5R)-2,5-dimethyl-1-pyrrolidinyl)methyl)-2′-fluoro-5′-(methyloxy)-1,1′-biphenyl-4-yl)methyl)oxy)phenyl)butanoic acid or (3S)-4-cyclopropyl-3-(3-(((2-(((2R,5R)-2,5-dimethyl-1-pyrrolidinyl)methyl)-2′-fluoro-5′-(methyloxy)-1,1′-biphenyl-4-yl)methyl)oxy)phenyl)butanoic acid]",0.1 to 1 µM
12,"COc1ccc(F)c(-c2ccc(COc3cccc(C(CC(=O)O)CC4CC4)c3)cc2CN2CCCCCC2)c1 (single isomer, unassigned) [Example 69.48, (3R)-3-(3-(((2-(1-Azepanylmethyl)-2′-fluoro-5′-(methyloxy)-1,1′-biphenyl-4-yl)methyl)oxy)phenyl)-4-cyclopropylbutanoic acid or (3S)-3-(3-(((2-(1-azepanylmethyl)-2′-fluoro-5′-(methyloxy)-1,1′-biphenyl-4-yl)methyl)oxy)phenyl)-4-cyclopropylbutanoic acid]",1 to 10 µM
13,"CCCCC(CC(=O)O)c1cccc(OCc2ccc(-c3cc(OC)ccc3F)c(C(C)(C)C)c2)c1 (single isomer, unassigned) [Example 71.1, (3R)-3-(3-(((2-(1,1-Dimethylethyl)-2′-fluoro-5′-(methyloxy)-1,1′-biphenyl-4-yl)methyl)oxy)phenyl)heptanoic acid or (3S-3-(3-(((2-(1,1-dimethylethyl)-2′-fluoro-5′-(methyloxy)-1,1′-biphenyl-4-yl)methyl)oxy)phenyl)heptanoic acid]",0.1 to 1 µM
14,"COC[C@H](CC(=O)O)c1cccc(OCc2ccc(-c3cc(OC)ccc3F)c(C3=CCCC3(C)C)c2)c1 (single isomer, unassigned) [Example 74, (3R)-3-(3-(((2-(5,5-Dimethyl-1-cyclopenten-1-yl)-2′-fluoro-5′-(methyloxy)-1,1′-biphenyl-4-yl)methyl)oxy)phenyl)-4-(methyloxy)butanoic acid or (3S)-3-(3-(((2-(5,5-dimethyl-1-cyclopenten-1-yl)-2′-fluoro-5′-(methyloxy)-1,1′-biphenyl-4-yl)methyl)oxy)phenyl)-4-(methyloxy)butanoic acid]",1 to 10 µM

# Now from value to compound:
row,EC50,Structure (SMILES)
1,0.1 to 1 µM,"CCC=C[C@H](CC(=O)O)c1cccc(OCc2ccc(-c3cc(OC)ccc3F)c(C(C)(C)C)c2)c1 (single isomer, unassigned) [Example 75, (3S)-3-(3-(((2-(1,1-Dimethylethyl)-2′-fluoro-5′-(methyloxy)-1,1′-biphenyl-4-yl)methyl)oxy)phenyl)-4-heptenoic acid or (3R)-3-(3-(((2-(1,1-dimethylethyl)-2′-fluoro-5′-(methyloxy)-1,1′-biphenyl-4-yl)methyl)oxy)phenyl)-4-heptenoic acid]"
2,1 to 10 µM,"CCC(CC(=O)O)c1cc(OCc2ccc(-c3cc(OC)ccc3F)c(C(C)(C)C)c2)ccc1F (single isomer, unassigned) [Example 76.2, (3R)-3-(5-(((2-(1,1-Dimethylethyl)-2′-fluoro-5′-(methyloxy)-1,1′-biphenyl-4-yl)methyl)oxy)-2-fluorophenyl)pentanoic acid or (3S)-3-(5-(((2-(1,1-dimethylethyl)-2′-fluoro-5′-(methyloxy)-1,1′-biphenyl-4-yl)methyl)oxy)-2-fluorophenyl)pentanoic acid]"
3,1 to 10 µM,"CC[C@H](CC(=O)O)c1cccc(OCc2ccc(-c3cc(OC)ncc3F)c(C3(COC)CCCC3)c2)c1F (single isomer, unassigned) [Example 77.12, (3R)-3-(3-(4-(5-Fluoro-2-methoxypyridin-4-yl)-3-(1-(methoxymethyl)cyclopentyl)benzyloxy)-2-fluorophenyl)pentanoic acid or (3S)-3-(3-(4-(5-fluoro-2-methoxypyridin-4-yl)-3-(1-(methoxymethyl)cyclopentyl)benzyloxy)-2-fluorophenyl)pentanoic acid]"
4,0.1 to 1 µM,"CCC(CC(=O)O)c1cccc(OCc2ccc(-c3cc(OC)ccc3F)c(C3CCCC3(C)C)c2)c1 (single isomer, unassigned) [Example 78.3]"
5,0.1 to 1 µM,"CC[C@H](CC(=O)O)c1cccc(OCc2ccc(-c3cccc(OC)c3)c([C@@H]3CCCC3(C)C)c2)c1 (single isomer, unassigned) [Example 78.5]"
6,1 to 10 µM,"CCOCc1cc(COc2cccc(C(CC)CC(=O)O)c2)ccc1-c1cc(OC)ccc1F (single isomer, unassigned) [Example 78.12, (3R)-3-(3-(((2-((Ethyloxy)methyl)-2′-fluoro-5′-(methyloxy)-1,1′-biphenyl-4-yl)methyl)oxy)phenyl)pentanoic acid or (3S)-3-(3-(((2-((ethyloxy)methyl)-2′-fluoro-5′-(methyloxy)-1,1′-biphenyl-4-yl)methyl)oxy)phenyl)pentanoic acid]"
7,1 to 10 µM,"C=CC(C)(C)C(OC)c1cc(COc2cccc(C(CC)CC(=O)O)c2)ccc1-c1cc(OC)ccc1F (single isomer, unassigned) [Example 78.13]"
8,0.1 to 1 µM,"COc1cccc(-c2ccc(COc3cccc(C(CC(=O)O)C4CCC4)c3)cc2C2CCCC2(C)C)c1 (single isomer, unassigned) [Example 79.5]"
